Several values for one entry are separate records, joined by “and”; a condition that tells them apart may be missing. Equal values may be shown once. Toxic doses and inconclusive results are not listed.
Test system: BDF1 mice, P388 leukemia ip, median survival T/C
Test: NCI In Vivo Anticancer Drug Screen. Data for tumor model P388 Leukemia (intraperitoneal) in B6D2F1 (BDF1) mice
Settings: endpoint: median survival time, higher = longer survival
Procedure, shortened: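 Steps: implant the tumour, treat one group with compound and another with vehicle, record survival, then divide treated by control.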

[1] = dose: 100.0 mg/kg/injection, schedule: Q01DX009 (ip), vehicle: other
[2] = dose: 200.0 mg/kg/injection, schedule: Q01DX009 (ip), vehicle: other
[3] = dose: 100.0 mg/kg/injection, schedule: Q01DX009 (ip), vehicle: saline with Tween-80
[4] = dose: 100.0 mg/kg/injection, schedule: Q04DX003 (ip), vehicle: saline with Tween-80
[5] = dose: 200.0 mg/kg/injection, schedule: Q01DX009 (ip), vehicle: saline with Tween-80
[6] = dose: 200.0 mg/kg/injection, schedule: Q04DX003 (ip), vehicle: saline with Tween-80
[7] = dose: 400.0 mg/kg/injection, schedule: Q01DX009 (ip), vehicle: saline with Tween-80
[8] = dose: 400.0 mg/kg/injection, schedule: Q04DX003 (ip), vehicle: saline with Tween-80
[9] = dose: 100.0 mg/kg/injection, schedule: Q01DX009 (ip), vehicle: Klucel (hydroxypropylcellulose) (HPC)
[10] = dose: 100.0 mg/kg/injection, schedule: Q04DX003 (ip), vehicle: Klucel (hydroxypropylcellulose) (HPC)
[11] = dose: 200.0 mg/kg/injection, schedule: Q01DX009 (ip), vehicle: Klucel (hydroxypropylcellulose) (HPC)
[12] = dose: 200.0 mg/kg/injection, schedule: Q04DX003 (ip), vehicle: Klucel (hydroxypropylcellulose) (HPC)
[13] = dose: 400.0 mg/kg/injection, schedule: Q04DX003 (ip), vehicle: Klucel (hydroxypropylcellulose) (HPC)
[14] = dose: 66.0 mg/kg/injection, schedule: Q04DX003 (ip), vehicle: saline sonified
[15] = dose: 100.0 mg/kg/injection, schedule: Q04DX003 (ip), vehicle: saline sonified
[16] = dose: 50.0 mg/kg/injection, schedule: Q01DX009 (ip), vehicle: saline with Tween-80

CC(=O)/C(=C\c1ccc(Cl)c(Cl)c1)C(=O)c1ccccc1
T/C (dose: 100.0 mg/kg/injection, schedule: Q04DX003 (ip), vehicle: other): 113 % of control | T/C (dose: 200.0 mg/kg/injection, schedule: Q04DX003 (ip), vehicle: other): 113 % of control

CSc1cc(C)c(O)c(CO)c1
T/C [1]: 100 % of control | T/C [2]: 95 % of control | T/C (dose: 400.0 mg/kg/injection, schedule: Q01DX009 (ip), vehicle: other): 95 % of control

CCOC(=O)c1c(N)sc2c1CCN(Cc1ccccc1)C2
T/C [3]: 104 % of control | T/C [4]: 100 % of control | T/C [5]: 95 % of control | T/C [6]: 104 % of control | T/C [7]: 119 % of control | T/C [8]: 109 % of control

O=C1c2ccccc2CCCC1N1CCOCC1 (stereo unspecified)
T/C [4]: 100 % of control | T/C [6]: 90 % of control | T/C [8]: 90 % of control

CC(C)=CCC/C(C)=C/CNc1ncnc2nc[nH]c12
T/C [4]: 100 % of control | T/C [6]: 90 % of control | T/C [8]: 109 % of control and 111 % of control

CC(C)NCC(=O)c1ccc(O)c(O)c1
T/C [3]: 109 % of control | T/C [4]: 100 % of control | T/C [6]: 100 % of control | T/C [8]: 100 % of control

CN=NNCc1ccccc1
T/C (dose: 12.5 mg/kg/injection, schedule: Q01DX005 (ip), vehicle: saline): 117 % of control | T/C (dose: 25.0 mg/kg/injection, schedule: Q01DX005 (ip), vehicle: saline): 86 % of control

c1ccc(C[n+]2ccc(-c3cc[n+](Cc4ccccc4)cc3)cc2)cc1
T/C (dose: 1.25 mg/kg/injection, schedule: Q01DX010 (ip), vehicle: saline): 86 % of control | T/C (dose: 156.0 micrograms/kg/injection, schedule: Q01DX010 (ip), vehicle: saline): 104 % of control | T/C (dose: 313.0 micrograms/kg/injection, schedule: Q01DX010 (ip), vehicle: saline): 104 % of control | T/C (dose: 625.0 micrograms/kg/injection, schedule: Q01DX010 (ip), vehicle: saline): 104 % of control

C=C(C)C12OC3(c4ccccc4)OC1C1C4OC4(CO)C(O)C4(O)C(=O)C(C)=CC4C1(O3)C(C)C2OC(=O)c1ccccc1 (stereo unspecified)
T/C (dose: 6.3 micrograms/kg/injection, schedule: Q01DX009 (ip), vehicle: saline + alcohol): 106 % of control | T/C (dose: 12.5 micrograms/kg/injection, schedule: Q01DX009 (ip), vehicle: saline + alcohol): 108 % of control | T/C (dose: 200.0 micrograms/kg/injection, schedule: Q01DX009 (ip), vehicle: saline + alcohol): 150 % of control

COc1cc(NC(=O)C(C)NC(=O)C(N)CCCCN)cc2ccccc12 (stereo unspecified)
T/C (dose: 50.0 mg/kg/injection, schedule: Q01DX005 (ip), vehicle: suspension in saline): 95 % of control | T/C (dose: 100.0 mg/kg/injection, schedule: Q01DX005 (ip), vehicle: suspension in saline): 90 % of control

O=C(O)C1CC=CCCC1 (stereo unspecified)
T/C [9]: 95 % of control | T/C [10]: 91 % of control | T/C [11]: 104 % of control | T/C [12]: 95 % of control | T/C (dose: 400.0 mg/kg/injection, schedule: Q01DX009 (ip), vehicle: Klucel (hydroxypropylcellulose) (HPC)): 104 % of control | T/C [13]: 91 % of control

COc1cc2c(cc1OC)C(=O)Cc1ccc3c(c1CN(C)CC2)OCO3
T/C (dose: 1.5 mg/kg/injection, schedule: Q01DX009 (ip), vehicle: saline sonified): 95 % of control | T/C (dose: 3.0 mg/kg/injection, schedule: Q01DX009 (ip), vehicle: saline sonified): 100 % of control | T/C (dose: 6.0 mg/kg/injection, schedule: Q01DX009 (ip), vehicle: saline sonified): 112 % of control

Nc1cc(Cl)c2cccnc2c1O
T/C (dose: 12.5 mg/kg/injection, schedule: Q01DX009 (ip), vehicle: saline): 111 % of control and 115 % of control | T/C (dose: 22.0 mg/kg/injection, schedule: Q01DX009 (ip), vehicle: saline): 118 % of control | T/C (dose: 25.0 mg/kg/injection, schedule: Q01DX009 (ip), vehicle: saline): 104 % of control and 117 % of control | T/C (dose: 44.0 mg/kg/injection, schedule: Q04DX003 (ip), vehicle: saline sonified): 100 % of control | T/C (dose: 50.0 mg/kg/injection, schedule: Q04DX003 (ip), vehicle: saline sonified): 100 % of control | T/C [14]: 118 % of control | T/C [15]: 113 % of control

OC(CCl)CN1CC[N+]2(CC1)CC[N+]1(CCN(CC(O)CCl)CC1)CC2 (stereo unspecified)
T/C (dose: 11.25 mg/kg/injection, schedule: Q01DX009 (ip), vehicle: water): 114 % of control | T/C (dose: 27.5 mg/kg/injection, schedule: Q01DX009 (ip), vehicle: water): 100 % of control | T/C (dose: 45.0 mg/kg/injection, schedule: Q01DX009 (ip), vehicle: water): 115 % of control | T/C (dose: 200.0 mg/kg/injection, schedule: Q01DX009 (ip), vehicle: water): 153 % of control and 159 % of control

C[n+]1c(-c2cc(N)cc(C(F)(F)F)c2)c2cc(N)ccc2c2ccc(N)cc21
T/C (dose: 6.25 mg/kg/injection, schedule: Q01DX009 (ip), vehicle: water): 150 % of control | T/C (dose: 12.5 mg/kg/injection, schedule: Q01DX009 (ip), vehicle: water): 181 % of control | T/C (dose: 25.0 mg/kg/injection, schedule: Q01DX009 (ip), vehicle: water): 95 % of control

O=C(Nc1ccc(Cl)c(Cl)c1)O/N=C/c1ccccn1
T/C [4]: 100 % of control | T/C [6]: 90 % of control | T/C [8]: 95 % of control

COC1C=CC=CC=C1
T/C (dose: 15.0 mg/kg/injection, schedule: Q01DX009 (ip), vehicle: saline with Tween-80): 113 % of control | T/C (dose: 30.0 mg/kg/injection, schedule: Q01DX009 (ip), vehicle: saline with Tween-80): 100 % of control | T/C (dose: 60.0 mg/kg/injection, schedule: Q01DX009 (ip), vehicle: saline with Tween-80): 113 % of control

CN1NCc2cncnc21
T/C [16]: 90 % of control | T/C [3]: 99 % of control | T/C [5]: 99 % of control | T/C [7]: 90 % of control

O=[N+]([O-])c1ccc(N=Cc2ccccc2)cc1
T/C [10]: 100 % of control | T/C [12]: 108 % of control | T/C [13]: 108 % of control

CC(=O)c1ccc2ccccc2c1OC(=O)c1cccnc1
T/C (dose: 50.0 mg/kg/injection, schedule: Q01DX009 (ip), vehicle: other): 100 % of control | T/C [1]: 109 % of control | T/C [2]: 118 % of control

CN(C)C1=C(N2CC2)C(=O)C(N(C)C)=C(N2CC2)C1=O
T/C (dose: 0.25 mg/kg/injection, schedule: Q01DX009 (ip), vehicle: saline): 87 % of control | T/C (dose: 0.5 mg/kg/injection, schedule: Q01DX009 (ip), vehicle: saline): 151 % of control | T/C (dose: 1.0 mg/kg/injection, schedule: Q01DX009 (ip), vehicle: saline): 174 % of control

O=[N+]([O-])c1cc[n+]([O-])c(Br)c1
T/C [16]: 90 % of control | T/C [4]: 100 % of control | T/C [5]: 87 % of control | T/C [6]: 90 % of control

Cc1ccc(S(=O)(=O)OCCN(CCOS(=O)(=O)c2ccc(C)cc2)c2ccc(N=O)cc2)cc1
T/C [14]: 195 % of control | T/C [15]: 200 % of control | T/C (dose: 150.0 mg/kg/injection, schedule: Q04DX003 (ip), vehicle: saline sonified): 216 % of control

Cc1ccc(CC2c3ccccc3Nc3ccccc32)cc1
T/C (dose: 100.0 mg/kg/injection, schedule: Q01DX001 (ip), vehicle: saline with Tween-80): 86 % of control | T/C (dose: 200.0 mg/kg/injection, schedule: Q01DX001 (ip), vehicle: saline with Tween-80): 86 % of control | T/C (dose: 400.0 mg/kg/injection, schedule: Q01DX001 (ip), vehicle: saline with Tween-80): 88 % of control

O=CNc1ccc(C(=O)O)cc1
T/C [4]: 100 % of control | T/C [6]: 104 % of control | T/C [8]: 91 % of control

C#C[C@]1(O)CC[C@H]2[C@@H]3CCc4cc(O)ccc4[C@H]3CC[C@@]21C
T/C [9]: 95 % of control | T/C [10]: 104 % of control | T/C [11]: 87 % of control | T/C [12]: 104 % of control | T/C [13]: 95 % of control

Ic1ncnc2nc[nH]c12
T/C (dose: 75.0 mg/kg/injection, schedule: Q01DX009 (ip), vehicle: Klucel (hydroxypropylcellulose) (HPC)): 113 % of control | T/C (dose: 100.0 mg/kg/injection, schedule: Q01DX009 (ip), vehicle: saline): 104 % of control | T/C [4]: 95 % of control | T/C (dose: 150.0 mg/kg/injection, schedule: Q01DX009 (ip), vehicle: Klucel (hydroxypropylcellulose) (HPC)): 113 % of control | T/C (dose: 200.0 mg/kg/injection, schedule: Q01DX009 (ip), vehicle: saline): 108 % of control | T/C [6]: 104 % of control | T/C (dose: 300.0 mg/kg/injection, schedule: Q01DX009 (ip), vehicle: Klucel (hydroxypropylcellulose) (HPC)): 109 % of control | T/C (dose: 400.0 mg/kg/injection, schedule: Q01DX009 (ip), vehicle: saline): 100 % of control | T/C [8]: 95 % of control
